From article PMC2987581 (Tetrahedron letters, 2010)

Experiments:
trypsin = target: T1, trypsin (Bos taurus, UniProt P00760); assay: serine protease inhibition screen, trypsin; type: biochemical; settings: at 100 μM, the highest concentration tested
T1 sequence (P00760 24-246): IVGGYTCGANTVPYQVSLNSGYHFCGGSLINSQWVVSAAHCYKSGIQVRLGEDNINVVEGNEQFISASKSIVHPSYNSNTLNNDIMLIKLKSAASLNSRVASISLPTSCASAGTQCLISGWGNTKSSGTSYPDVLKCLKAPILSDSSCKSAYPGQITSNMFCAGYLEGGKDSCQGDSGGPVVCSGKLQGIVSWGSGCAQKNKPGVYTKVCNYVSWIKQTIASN

aspartic protease BACE1 = aspartic protease BACE1 (Homo sapiens, UniProt P56817); assay: aspartic protease inhibition, BACE1; type: biochemical; settings: at concentrations up to 30 μM
Sequence of aspartic protease BACE1 (P56817 46-501): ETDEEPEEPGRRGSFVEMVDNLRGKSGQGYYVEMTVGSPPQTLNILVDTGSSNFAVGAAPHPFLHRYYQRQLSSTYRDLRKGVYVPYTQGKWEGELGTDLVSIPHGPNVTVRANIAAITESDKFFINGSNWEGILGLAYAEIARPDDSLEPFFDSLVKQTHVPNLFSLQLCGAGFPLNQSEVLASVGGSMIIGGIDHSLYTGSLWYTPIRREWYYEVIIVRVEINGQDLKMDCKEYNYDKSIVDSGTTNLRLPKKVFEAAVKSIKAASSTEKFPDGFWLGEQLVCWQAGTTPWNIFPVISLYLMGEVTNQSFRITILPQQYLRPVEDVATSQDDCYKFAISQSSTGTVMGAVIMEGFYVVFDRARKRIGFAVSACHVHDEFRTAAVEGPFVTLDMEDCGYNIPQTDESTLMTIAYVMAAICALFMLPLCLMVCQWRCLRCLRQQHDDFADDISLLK

## C/C=C1\NC(=O)[C@@H](NC(=O)[C@@H](NC(=O)[C@H](C)NC(=O)CCC)C(C)C)[C@@H](C)OC(=O)[C@H](C(C)C)NC(=O)[C@H](Cc2ccc(O)cc2)N(C)C(=O)[C@H](Cc2ccccc2)N2C(=O)[C@H](CC[C@H]2O)NC1=O [Compound 1, Bouillomide A]
trypsin
  inhibition of trypsin: no inhibition
Aspartic protease BACE1
  inhibition of BACE1: does not inhibit

## C/C=C1\NC(=O)[C@@H](NC(=O)[C@@H](NC(=O)[C@H](C)NC(=O)CCC)C(C)C)[C@@H](C)OC(=O)[C@H](C(C)C)NC(=O)[C@H](Cc2ccc(O)c(Br)c2)N(C)C(=O)[C@H](Cc2ccccc2)N2C(=O)[C@H](CC[C@H]2O)NC1=O [Compound 2, Bouillomide B]
trypsin
  inhibition of trypsin: no inhibition
